Experiments:
[1] = tested on: Trypanosoma cruzi (Tulahuen trypomastigotes expressing β-galactosidase, in L6 cells); test: In vitro T. cruzi assay for determination of IC50; format: cell-based; details: Trypanosoma cruzi, TULAHUEN, L6; 96 h incubation
Outline: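 Tulahuen T. cruzi expressing β-galactosidase, grown in L6 cells; compounds tested as seven-point serial dilutions in triplicate after removing extracellular trypomastigotes.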

[2] = tested on: Giardia duodenalis (strain WB trophozoites); test: Giardia adherence assay; format: cell-based; details: exposed for 5 hours
Method: Giardia strain WB was grown until confluent (grown and maintained in TYI-S-33 medium with 10% foetal bovine serum). For the assay, media of a confluent culture was replaced with fresh TYI-S-33 medium. Cultures were then cold shocked (on ice) for 40 minutes to detach trophozoites. The cell density of the cultures was adjusted to 1×10^6 cells/ml and 1 ml was added to each well of a 24 well plate already containing 1 ml of diluted compounds (see below). […] After incubation the coverslips were removed, air-dried and stained with Diff-Quik (a Romanowski stain variant). Coverslips were mounted onto glass slides using polymount. Images at 10× magnification were taken at 5 random locations per coverslip. […] Stock solutions of compounds were prepared in DMSO at 25.6 mg/ml. Compounds were diluted 1:100 in TYI-S-33 medium. A 1:2 serial dilution was then performed in TYI-S-33 medium in 24 well plates.

[3] = Release from Formulation B (Franz diffusion cells); format: physicochemical; details: absolute ethanol receptor, 32° C., up to 24 hours
Method: Franz diffusion cells were utilized to quantify the release rate of NCL 812 and NCL099 from its topical formulations. Five milliliters of absolute ethanol, which was chosen as the desired release medium, was loaded into the receptor chamber. Temperature of the receptor fluid was kept constant, at 32±1° C. using a water jacket. Acetyl cellulose membranes, with pore size of 0.45 μm (Pall Corporation) was selected and placed between donor and receptor chamber. Followed by that, a number of test samples (Formulation B) was loaded into the donor chamber. One milliliter of receptor fluid was collected at regular time intervals of 0.25, 0.50, 0.75, 1, 2, 3, 4, 5, 6, 7, 8 and 24 hours through the sampling port. One milliliter of fresh absolute ethanol was immediately returned to the receptor chamber. UV-HPLC was utilized to analyse the content of the receptor fluids attained.

[4] = Exposure in male Swiss outbred mice following IV administration; format: in vivo
Method: The systemic exposures of NCL026, NCL195, NCL259 and NCL812 were studied in nonfasted male Swiss outbred mice weighing 26.2-32.1 g. Mice had access to food and water ad libitum throughout the pre- and post-dose sampling period. Each compound was administered IV via a bolus injection into the tail vein (vehicle 20% (v/v) DMSO in PEG400, 1 mL/kg dose volume, n=8 mice per compound). […] A maximum of two samples were obtained from each mouse, with samples being taken either via submandibular bleed (approximately 120 μL; conscious sampling) or terminal cardiac puncture (0.6 mL; while mice were anaesthetised using inhaled Isoflurane). No urine samples were collected as mice were housed in bedded cages during the study. Blood was collected directly into polypropylene Eppendorf tubes containing heparin as anticoagulant, and stabilisation cocktail (containing Complete® (a protease inhibitor cocktail with EDTA) and potassium fluoride) to minimise the potential for ex vivo degradation of the test compounds in blood/plasma samples. Once collected, blood samples were centrifuged immediately, supernatant plasma was removed, and stored at −80° C. until analysis by LC-MS using methods standard in the art. Each compound was administered in a vehicle composed of 20% (v/v) DMSO in PEG400. Formulations were prepared by dissolving the compounds in DMSO prior to addition of PEG400. Formulations were not filtered prior to dosing and were administered to mice within 2.5 h of preparation. […] The dose administered to each mouse was calculated on the basis of the measured concentration in the IV formulation, the dose volume and individual mouse body weight. Plasma concentration versus time data were analysed using non-compartmental methods (WinNonlin Version 6.3.0.395). Standard calculations for each pharmacokinetic parameter were calculated using standard methods in the art.

[5] = tested on: Giardia duodenalis (WB strain trophozoites); test: Transmission electron microscopy study; format: cell-based; details: 6 μg/ml NCL812, 1 hour
Method: Samples were incubated at 37° C. for 1 hour (NCL treated) or 4 hours (Metronidazole and DMSO control) then cold shocked to detach trophozoites. Treated samples were centrifuged at 900×g for 10 minutes and washed twice with cold saline. Final cell pellet was resuspended in pre-cooled fixative (1.25% gluteraldehyde, 4% paraformaldehyde in PBS with 4% sucrose, pH 7.2) and left overnight. […] Samples were embedded in epoxy resin and stained with uranyl acetate and lead citrate before viewing on an FEI Tecnai G2 Spirit Transmission Electron Microscope.

N=C(N/N=C/c1ccc(Cl)cc1)N/N=C/c1ccc(Cl)cc1 [NCL812, 1,3-bis[(E)-(4-chlorophenyl)methyleneamino]guanidine]
IC50 [1]: > 11 µM | number of adherent trophozoites [2]: significant decreases | release profile from Formulation B [3]: acceptable release profile | adverse reactions after IV dosing ([4]; IV, 5 mg/kg, one mouse): abnormal behaviour (frantic, hyperactive) | AUC0-inf ([4]; male, Swiss outbred, mouse, in vivo, IV 5 mg/kg, values marked a, b are approximations, read-out: AUC0-inf): 27.9 µM·h | Vd ([4]; male, Swiss outbred, mouse, in vivo, IV 5 mg/kg, values marked a, b are approximations, read-out: Plasma Vss): 5.9 L/kg | clearance ([4]; male, Swiss outbred, mouse, plasma, IV 5 mg/kg, values marked a, b are approximations, read-out: Plasma CL): 9.5 mL/min/kg | half-life ([4]; male, Swiss outbred, mouse, IV 5 mg/kg, plasma, value marked b is an approximation, read-out: Apparent t1/2 (converted)): 8.2 h | changes to the ultrastructure of Giardia duodenalis [5]: significant changes

Source: patent US10392363B2, “Methods for treating protozoan infections” (Neoculi Pty Ltd., priority 2014, dated 2019)
